{
  "source": "paper PMC9452538",
  "about": "“The antimicrobial peptide LI14 combats multidrug-resistant bacterial infections” (Communications Biology, 2022)",
  "key": {"[1]": {"system": "E. faecalis A4 (VRE, VanA)", "test": "microbe, parasite or virus in culture", "assay_type": "cell-based", "conditions": "Enterococcus faecalis, VRE", "experimental": "(§1) An antimicrobial activity study was conducted on all peptides against a panel of laboratory bacteria, including ATCC source and clinical isolates with resistance determinants. According to CLSI2021 guidelines, we tested the minimum inhibitory concentrations (MICs) of peptides using standard broth micro-dilutions. Briefly, bacteria grown to exponential phase were diluted in 1:1000 to MHB, subsequently, equivalent amounts of bacterial suspension (1.5 × 10^6 CFUs/mL) were mixed with different concentrations of peptides in a sterilized 96-well microtiter plate (Corning)."}, "[2]": {"system": "S. enteritidis ATCC 13076", "test": "microbe, parasite or virus in culture", "assay_type": "cell-based", "conditions": "Salmonella enterica", "experimental": "as §1"}, "E. faecalis 1F-1": {"system": "E. faecalis 1F-1", "test": "microbe, parasite or virus in culture", "assay_type": "cell-based", "conditions": "Enterococcus faecalis, 1F1; E. faecalis 1F-1; MHB, 16-18 h, 37 °C; read-out: MIC", "experimental": "as §1"}, "[3]": {"system": "A. baumannii C222 (tet(X6))", "test": "microbe, parasite or virus in culture", "assay_type": "cell-based, Acinetobacter baumannii", "conditions": "Acinetobacter baumannii; A. baumannii C222 (tet(X6)); MHB, 16-18 h, 37 °C; read-out: MIC", "experimental": "as §1"}, "A. baumannii ATCC 19609": {"system": "A. baumannii ATCC 19609", "test": "microbe, parasite or virus in culture", "assay_type": "cell-based, Acinetobacter baumannii", "conditions": "Acinetobacter baumannii, ATCC19609; A. baumannii ATCC 19609; MHB, 16-18 h, 37 °C; read-out: MIC", "experimental": "as §1"}, "E. coli ATCC 25922": {"system": "E. coli ATCC 25922", "test": "microbe, parasite or virus in culture", "assay_type": "cell-based, Escherichia coli", "conditions": "Escherichia coli, ATCC25922", "procedure,_shortened": "(§2)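 Broth microdilution per CLSI 2021 guidelines. Exponential-phase bacteria were diluted 1:1000 into MHB, and 1.5 × 10^6 CFUs/mL suspension was mixed with serially varied peptide concentrations to determine MIC.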"}, "[4]": {"system": "E. coli B2 (blaNDM-5 + mcr-1)", "test": "microbe, parasite or virus in culture", "assay_type": "cell-based, Escherichia coli", "conditions": "Escherichia coli; E. coli B2 (blaNDM-5 + mcr-1); MHB, 16-18 h, 37 °C; read-out: MIC", "procedure,_shortened": "as §2"}, "E. coli DH5α (PUC19)": {"system": "E. coli DH5α (PUC19)", "test": "MIC broth microdilution", "assay_type": "cell-based, Escherichia coli", "conditions": "Escherichia coli; engineered E. coli DH5α (PUC19); MHB, 16-18 h, 37 °C; read-out: MIC", "experimental": "as §1"}, "[5]": {"system": "E. coli DH5α (PUC19-mcr-1)", "test": "MIC broth microdilution", "assay_type": "cell-based, Escherichia coli", "conditions": "Escherichia coli", "experimental": "as §1"}, "E. coli CP131 (mcr-3)": {"system": "E. coli CP131 (mcr-3)", "test": "microbe, parasite or virus in culture", "assay_type": "cell-based, Escherichia coli", "conditions": "Escherichia coli; E. coli CP131 (mcr-3); MHB, 16-18 h, 37 °C; read-out: MIC", "experimental": "as §1"}, "E. coli C3 (blaNDM-1)": {"system": "E. coli C3 (blaNDM-1)", "test": "microbe, parasite or virus in culture", "assay_type": "cell-based, Escherichia coli", "conditions": "Escherichia coli; E. coli C3 (blaNDM-1); MHB, 16-18 h, 37 °C; read-out: MIC", "experimental": "as §1"}, "E. coli B3-1 (tet(X4))": {"system": "E. coli B3-1 (tet(X4))", "test": "microbe, parasite or virus in culture", "assay_type": "cell-based, Escherichia coli", "conditions": "Escherichia coli; E. coli B3-1 (tet(X4)); MHB, 16-18 h, 37 °C; read-out: MIC", "experimental": "as §1"}, "E. coli 1F28 (tet(X4))": {"system": "E. coli 1F28 (tet(X4))", "test": "microbe, parasite or virus in culture", "assay_type": "cell-based, Escherichia coli", "conditions": "Escherichia coli; E. coli 1F28 (tet(X4)); MHB, 16-18 h, 37 °C; read-out: MIC", "experimental": "as §1"}, "E. coli G6 (blaNDM-5)": {"system": "E. coli G6 (blaNDM-5)", "test": "microbe, parasite or virus in culture", "assay_type": "cell-based, Escherichia coli", "conditions": "Escherichia coli; E. coli G6 (blaNDM-5); MHB, 16-18 h, 37 °C; read-out: MIC", "experimental": "as §1"}, "E. coli G92 (mcr-1)": {"system": "E. coli G92 (mcr-1)", "test": "microbe, parasite or virus in culture", "assay_type": "cell-based, Escherichia coli", "conditions": "Escherichia coli; E. coli G92 (mcr-1); MHB, 16-18 h, 37 °C; read-out: MIC", "experimental": "as §1"}, "P. aeruginosa PA14": {"system": "P. aeruginosa PA14", "test": "microbe, parasite or virus in culture", "assay_type": "cell-based, Pseudomonas aeruginosa", "conditions": "Pseudomonas aeruginosa, PA14", "experimental": "as §1"}, "E. faecium 5F-10": {"system": "E. faecium 5F-10", "test": "microbe, parasite or virus in culture", "assay_type": "cell-based, Enterococcus faecium", "conditions": "Enterococcus faecium, 5F10", "experimental": "as §1"}, "[6]": {"system": "P. cibarius HNCF44W (blaNDM-1 + tet(X6))", "test": "organism not typed", "assay_type": "cell-based", "conditions": "P. cibarius HNCF44W (blaNDM-1 + tet(X6)); MHB, 16-18 h, 37 °C; read-out: MIC", "experimental": "as §1"}, "S. aureus ATCC 29213": {"system": "S. aureus ATCC 29213", "test": "microbe, parasite or virus in culture", "assay_type": "cell-based, Staphylococcus aureus", "conditions": "Staphylococcus aureus, ATCC29213", "procedure,_shortened": "as §2"}, "MRSA T144": {"system": "MRSA T144", "test": "microbe, parasite or virus in culture", "assay_type": "cell-based, Staphylococcus aureus", "conditions": "Staphylococcus aureus; MRSA T144; MHB, 16-18 h, 37 °C; read-out: MIC", "procedure,_shortened": "as §2"}, "[7]": {"system": "S. aureus 215 (cfr + LZD^R)", "test": "MIC broth microdilution", "assay_type": "cell-based, Staphylococcus aureus", "conditions": "Staphylococcus aureus", "experimental": "as §1"}, "S. aureus G16 (RIF^R)": {"system": "S. aureus G16 (RIF^R)", "test": "MIC broth microdilution", "assay_type": "cell-based, Staphylococcus aureus", "conditions": "Staphylococcus aureus", "experimental": "as §1"}, "[8]": {"system": "K. pneumoniae D120 (mcr-8)", "test": "microbe, parasite or virus in culture", "assay_type": "cell-based, Klebsiella pneumoniae", "conditions": "Klebsiella pneumoniae; K. pneumoniae D120 (mcr-8); MHB, 16-18 h, 37 °C; read-out: MIC", "experimental": "as §1"}, "[9]": {"system": "K. pneumoniae ATCC 700603", "test": "microbe, parasite or virus in culture", "assay_type": "cell-based, Klebsiella pneumoniae", "conditions": "Klebsiella pneumoniae, ATCC700603; K. pneumoniae ATCC 700603; MHB, 16-18 h, 37 °C; read-out: MIC", "experimental": "as §1"}, "[10]": {"system": "E. coli DH5α (PUC19-blaNDM-1)", "test": "MIC broth microdilution", "assay_type": "cell-based", "conditions": "Escherichia coli", "experimental": "as §1"}, "[11]": {"system": "E. coli DH5α (PUC19-blaNDM-5)", "test": "MIC broth microdilution", "assay_type": "cell-based", "conditions": "Escherichia coli", "experimental": "as §1"}, "[12]": {"system": "E. coli DH5α (PUC19-tet(X4))", "test": "MIC broth microdilution", "assay_type": "cell-based", "conditions": "Escherichia coli", "experimental": "as §1"}, "[13]": {"system": "E. coli DH5α (PUC19-blaNDM-9)", "test": "MIC broth microdilution", "assay_type": "cell-based", "conditions": "Escherichia coli", "experimental": "as §1"}, "[14]": {"system": "tigecycline-resistant E. coli B3-1", "test": "Checkerboard assay with LI14", "assay_type": "cell-based, Escherichia coli"}, "[15]": {"system": "sensitive E. coli ATCC 25922", "test": "Checkerboard assay with LI14", "assay_type": "cell-based, Escherichia coli"}, "MRSA 1530": {"system": "MRSA 1530", "test": "microbe, parasite or virus in culture", "assay_type": "cell-based, Staphylococcus aureus", "conditions": "Staphylococcus aureus; MRSA 1530; MHB, 16-18 h, 37 °C; read-out: MIC", "experimental": "as §1"}, "MRSA 1518": {"system": "MRSA 1518", "test": "microbe, parasite or virus in culture", "assay_type": "cell-based, Staphylococcus aureus", "conditions": "Staphylococcus aureus; MRSA 1518; MHB, 16-18 h, 37 °C; read-out: MIC", "experimental": "as §1"}, "[16]": {"conditions": "antibiotic in combination with LI14, checkerboard"}, "[17]": {"conditions": "in the presence of ¼ MIC of LI14"}},
  "data": [
    {"smiles": "CN(C)c1cc(NC(=O)CNC(C)(C)C)c(O)c2c1C[C@H]1C[C@H]3[C@H](N(C)C)C(O)=C(C(N)=O)C(=O)[C@@]3(O)C(O)=C1C2=O", "note": "[Tigecycline]", "values": [
      {"measurement": "MIC", "setting": "[1]", "value": "< 0.0625", "unit": "mg/L"},
      {"measurement": "MIC", "setting": "[2]", "value": 0.125, "unit": "mg/L"},
      {"measurement": "MIC", "setting": "E. faecalis 1F-1", "value": 16, "unit": "mg/L"},
      {"measurement": "MIC", "setting": "[3]", "value": 64, "unit": "mg/L"},
      {"measurement": "MIC", "setting": "A. baumannii ATCC 19609", "value": 0.25, "unit": "mg/L"},
      {"measurement": "MIC", "setting": "E. coli ATCC 25922", "value": 0.125, "unit": "mg/L"},
      {"measurement": "MIC", "setting": "[4]", "value": 2, "unit": "mg/L"},
      {"measurement": "MIC", "setting": "E. coli DH5α (PUC19)", "value": 1, "unit": "mg/L"},
      {"measurement": "MIC", "setting": "[5]", "value": 1, "unit": "mg/L"},
      {"measurement": "MIC", "setting": "E. coli CP131 (mcr-3)", "value": 2, "unit": "mg/L"},
      {"measurement": "MIC", "setting": "E. coli C3 (blaNDM-1)", "value": 2, "unit": "mg/L"},
      {"measurement": "MIC", "setting": "E. coli B3-1 (tet(X4))", "value": 32, "unit": "mg/L"},
      {"measurement": "MIC", "setting": "E. coli 1F28 (tet(X4))", "value": 16, "unit": "mg/L"},
      {"measurement": "MIC", "setting": "E. coli G6 (blaNDM-5)", "value": 2, "unit": "mg/L"},
      {"measurement": "MIC", "setting": "E. coli G92 (mcr-1)", "value": 4, "unit": "mg/L"},
      {"measurement": "MIC", "setting": "P. aeruginosa PA14", "value": "< 0.0625", "unit": "mg/L"},
      {"measurement": "MIC", "setting": "E. faecium 5F-10", "value": "< 0.0625", "unit": "mg/L"},
      {"measurement": "MIC", "setting": "[6]", "value": 64, "unit": "mg/L"},
      {"measurement": "MIC", "setting": "S. aureus ATCC 29213", "value": 0.125, "unit": "mg/L"},
      {"measurement": "MIC", "setting": "MRSA T144", "value": 0.25, "unit": "mg/L"},
      {"measurement": "MIC", "setting": "[7]", "value": 0.25, "unit": "mg/L"},
      {"measurement": "MIC", "setting": "S. aureus G16 (RIF^R)", "value": "< 0.0625", "unit": "mg/L"},
      {"measurement": "MIC", "setting": "[8]", "value": 0.25, "unit": "mg/L"},
      {"measurement": "MIC", "setting": "[9]", "value": 0.5, "unit": "mg/L"},
      {"measurement": "MIC", "setting": "[10]", "value": 1, "unit": "mg/L"},
      {"measurement": "MIC", "setting": "[11]", "value": 1, "unit": "mg/L"},
      {"measurement": "MIC", "setting": "[12]", "value": 64, "unit": "mg/L"},
      {"measurement": "MIC", "setting": "[13]", "value": 1, "unit": "mg/L"},
      {"measurement": "FIC index", "setting": "[14]; [16]", "value": 0.125},
      {"measurement": "MICa of antibiotic", "setting": "[14]; in the absence of LI14", "value": 32, "unit": "µg/mL"},
      {"measurement": "MICb of antibiotic", "setting": "[14]; [17]", "value": 2, "unit": "µg/mL"},
      {"measurement": "Potentiation", "setting": "[14]; [17]", "value": 16, "unit": "fold"},
      {"measurement": "FIC index", "setting": "[15]; [16]", "value": 0.5},
      {"measurement": "MICa of antibiotic", "setting": "[15]; in the absence of LI14", "value": 0.063, "unit": "µg/mL"},
      {"measurement": "MICb of antibiotic", "setting": "[15]; [17]", "value": 0.016, "unit": "µg/mL"},
      {"measurement": "Potentiation", "setting": "[15]; [17]", "value": 4, "unit": "fold"},
      {"measurement": "MIC", "setting": "MRSA 1530", "value": 1, "unit": "mg/L"},
      {"measurement": "MIC", "setting": "MRSA 1518", "value": 0.25, "unit": "mg/L"}
    ]}
  ]
}
